Measurements from paper PMC11013477, “Lycocasine A, a Lycopodium Alkaloid from Lycopodiastrum casuarinoides and Its Acid-Sensing Ion Channel 1a Inhibitory Activity” (Molecules, 2024).
Like-named read-outs stand apart in the source and are kept apart here.

Legend:
ASIC1a [1] = molecular target: T1, ASIC1a (Homo sapiens, UniProt P78348); conditions: read-out: IC50 ASIC1a inhibition; cited from earlier work
T1 construct: expressed in transfected cells; host or cells: HEK293T
T1 sequence (P78348 1-528): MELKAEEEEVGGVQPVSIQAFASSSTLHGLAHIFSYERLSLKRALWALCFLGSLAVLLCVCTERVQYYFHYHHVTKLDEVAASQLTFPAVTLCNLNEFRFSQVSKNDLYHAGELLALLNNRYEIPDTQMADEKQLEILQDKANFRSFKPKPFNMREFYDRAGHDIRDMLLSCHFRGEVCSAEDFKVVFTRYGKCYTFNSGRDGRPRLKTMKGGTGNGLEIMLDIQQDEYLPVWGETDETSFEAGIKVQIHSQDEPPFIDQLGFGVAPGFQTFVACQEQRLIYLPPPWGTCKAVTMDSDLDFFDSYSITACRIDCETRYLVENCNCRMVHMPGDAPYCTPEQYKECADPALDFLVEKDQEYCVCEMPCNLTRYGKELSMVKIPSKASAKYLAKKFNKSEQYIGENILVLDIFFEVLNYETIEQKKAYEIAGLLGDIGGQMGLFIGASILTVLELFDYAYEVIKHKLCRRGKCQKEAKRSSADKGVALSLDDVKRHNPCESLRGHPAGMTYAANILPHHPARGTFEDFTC

ASIC1a [2] = molecular target: T1, ASIC1a; assay: Whole-cell voltage-clamp recording of ASIC1a currents in transfected HEK293T cells; format: cell-based; conditions: for inhibition at 50 µM: HEK-293T
Experimental: Cells were plated at a low density in 12-well plates 24 h prior to transfection. For transfection, Lipofectamine 3000 (Invitrogen, Thermo Fisher Scientific, Inc., Waltham, MA, USA) was utilized to introduce 300 ng of ASIC1a cDNA into adherent cells, which were then analyzed for 24–48 h post-transfection. […] Borosilicate glass micropipettes, fashioned to achieve a resistance of 2–6 MΩ, were filled with an intracellular recording solution comprising 140 mM KCl, 2 mM MgCl2, 5 mM EGTA, 5 mM NaCl, and 10 mM HEPES (adjusted to pH 7.4 with KOH). […] Current signals were amplified using a SUTTER IPA-2 amplifier, with data acquisition and analysis performed using SutterPatch 9.0 software. Data processing was carried out using GraphPad Prism version 8.0.

[3] = 50 μM, HEK293T cells transfected with ASIC1a, currents triggered by pH 6.0, holding potential −60 mV, read-out: inhibition rate of ASIC1a currents

| Compound | IC50 (ASIC1a [1]) [µM] | inhibition at 50 µM (ASIC1a [2]; [3]) [%] | other results |
| --- | --- | --- | --- |
| O=c1c(-c2ccc(O)cc2)coc2c([C@@H]3O[C@H](CO)[C@@H](O)[C@H](O)[C@H]3O)c(O)ccc12 [Puerarin] | 9.31 | – | – |
| COC1=C[C@@H]2[C@@H]3Cc4ccc(OC)c(O)c4[C@]2(CCN3C)CC1=O [Sinomenine] | ~1 | – | – |
| CC1=C[C@H]2Cc3[nH]c(=O)ccc3[C@]3(C1)NCCC[C@H]23 [Compound 7, huperzine B] | – | < 30 | – |
| COc1cc2c(cc1O)[C@H](Cc1ccc(Oc3cc(C[C@@H]4NCCc5cc(OC)c(O)cc54)ccc3O)cc1)NCC2 [Lindoldhamine] | 9 | – | – |
| C=CC1C2C=C(C)CC1(N(C)C)C1=C(C(=O)OC)C(=O)NC1(O)C2 (centres unmarked) [Compound 1, lycocasine A] | – | – | IC50 (ASIC1a [2]): 48.7 ± 0.92 µM; inhibition at 50 µM (ASIC1a [2]; pH 6, read-out: inhibition rate of ASIC1a currents): > 50%; melting point: 187 to 189 °C |
| N=C(N)NC(=O)c1nc(Cl)c(N)nc1N [Amiloride] | – | > 50 | – |
